# Measurements: patent US20060116505A1, “Glucose and/or fructose transporter naglt1 and its gene” (priority 2002, published 2006)
# Biological target: T1, NaGLT1 (Rattus norvegicus, UniProt Q80T22, M166I/S3F)
# T1 construct: expressed in transfected cells; host or cells: Xenopus oocytes injected with NaGLT1 RNA synthesized in vitro
# T1 sequence (Q80T22 1-484 S3F/M166I): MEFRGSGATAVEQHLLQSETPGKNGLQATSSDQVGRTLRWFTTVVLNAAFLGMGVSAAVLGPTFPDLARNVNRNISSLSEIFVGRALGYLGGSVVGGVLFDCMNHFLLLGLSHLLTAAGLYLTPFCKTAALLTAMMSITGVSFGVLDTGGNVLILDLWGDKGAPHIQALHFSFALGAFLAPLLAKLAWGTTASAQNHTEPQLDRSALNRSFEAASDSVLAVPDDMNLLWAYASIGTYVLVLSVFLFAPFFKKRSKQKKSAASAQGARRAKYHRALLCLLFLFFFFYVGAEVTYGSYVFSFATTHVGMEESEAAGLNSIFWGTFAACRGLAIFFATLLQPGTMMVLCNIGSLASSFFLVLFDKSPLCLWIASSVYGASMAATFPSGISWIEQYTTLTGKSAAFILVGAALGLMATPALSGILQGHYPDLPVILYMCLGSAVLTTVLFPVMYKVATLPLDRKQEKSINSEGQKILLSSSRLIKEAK
# Test: Uptake of radio-labeled saccharides by NaGLT1-expressing Xenopus oocytes
# Type: cell-based
# Details: Hill plot of αMeGlc uptake by rNaGLT1, dose- or extracellular Na+-dependency
# Experimental: Transportation activity of NaGLT1 was examined with the expression system of Xenopus oocytes (hereinafter abbreviated as oocytes). First, in order to examine the selectivity of various saccharides, NaGLT1 RNA synthesized in vitro was injected into the oocyte and incubated for 2 days at 18° C., then used for the experiment.
# (§1) Uptake activity of NaGLT1 cRNA-injected cell and water-injected oocyte to [U-^14C]-α-methyl-D-glucopyranoside (α-MeGlc), D-[1-^14C] galactose, D-[U-^14C] mannose, D-[U-^14C] fructose, [1,2-^3H]-2-deoxy-glucose, D-[1-^3H] mannitol, [U-^14C] sucrose was measured. At that time, incubation was conducted in a buffer solution comprising 96 mM NaCl, 2 mM KCl, 1.8 mM CaCl2, 1 mM MgCl2, 5 mM HEPES (pH 7.4). Further, when extracellular Na^+ concentration dependency was conducted, the concentration of NaCl was adjusted to be within the range of 9.6 to 96 mM, and the final osmotic pressure was kept constant by making up for the shortage to 96 mM with choline chloride (FIGS. 6 and 7).
# Next, concentration dependency of αMeGlc uptake was examined by using NaGLT1-expressing oocytes. […] In addition, the effect of extracellular Na^+ ion concentration on the uptake of αMeGlc mediated by NaGLT1 was analyzed. First, extracellular Na^+ concentration was varied from 0 to 96 mM, at the state wherein membrane potential difference was eliminated by the addition of 7 μM valinomycin, and the effect of extracellular Na^+ on the uptake of αMeGlc by rNaGLT1 was examined. […] Further, by examination of dose- or extracellular Na^+-dependancy to the uptake of αMeGlc by rNaGLT1 (FIGS. 6A and 6C), Vmax value (the maximum transport rate) and Km value were calculated for each case. Based on those values, Hill plot (logarithmic values of the figure calculated by dividing Vmax by transport rate V when the abscissa axis is the concentration of varied substrate or ion, and ordinate axis is each substrate (or ion) concentration) was conducted (FIGS. 6B and 6D) and Hill coefficient was calculated. […]
row,Structure (SMILES),Hill coefficient
1,"CO[C@H]1O[C@H](CO)[C@@H](O)[C@H](O)[C@H]1O [αMeGlc, α-methyl-D-glucopyranoside]",1.06

# Same assay, conditions: NaGLT1-expressing oocytes, concentration dependency; read-out: Km value of αMeGlc uptake
row,Structure (SMILES),Km
1,"CO[C@H]1O[C@H](CO)[C@@H](O)[C@H](O)[C@H]1O [αMeGlc, α-methyl-D-glucopyranoside]",3.71 ± 0.09 mM

# Same assay, conditions: NaGLT1 RNA-injected Xenopus oocytes, incubated 2 days at 18° C.
row,Structure (SMILES),uptake of radio-labeled saccharide in comparison to water-injected oocytes
1,"CO[C@H]1O[C@H](CO)[C@@H](O)[C@H](O)[C@H]1O [αMeGlc, α-methyl-D-glucopyranoside]",significantly high

# System: renal brush border membrane vesicles
# Test: Na+-dependent uptake of [14C] fructose by renal brush border membrane vesicles
# Type: biochemical, rat
# Details: [14C] fructose 2 mM, 15 seconds at 25° C.; glucose analog 30 mM, phloridzin or phloretin 50 μM
# Experimental: Membrane vesicles (20 μl) suspended in 100 mM mannitol and 10 mM HEPES (pH 7.5) were incubated with a substrate mixture (20 μl) containing 100 mM mannitol, 200 mM NaCl (black circle: ●) or KCl (white circle: ∘), 4 mM [^14C] fructose and 10 mM HEPES (pH 7.5) at 25° C. The values indicate mean±S.E.M of 3 independent experiments, respectively. Each experiment was conducted with brush border membrane vesicles isolated from 5 rats.
# Na^+-dependent uptake of fructose by renal brush border membrane vesicles was analyzed in the presence of NaCl in an incubation buffer solution of various concentrations (0.1 to 20 mM) for 15 seconds at 25° C., and the uptake in case where NaCl is substituted with KCl was deduced. […] Each point indicates mean±S.E.M of 3 measurements. The apparent Km and Vmax values were obtained from 3 independent experiments.
# In the presence and absence of phloridzin (50 μM) or phloretin (50 μM), a glucose analog (30 mM), membrane vesicles (20 μl) suspended in 100 mM mannitol and 10 mM HEPES (pH 7.5) were incubated with a substrate mixture (20 μl) containing [^14C] fructose (finally, 2 mM, 74 kBq/ml) for 15 seconds at 25° C., and the uptake in case where NaCl is substituted with KCl was deduced. […] The values indicate mean±S.E.M of 3 independent experiments, respectively.
row,Structure (SMILES),"Na+-dependent uptake of [14C] fructose by renal brush border membrane vesicles, % of control"
1,"O=CC[C@@H](O)[C@H](O)[C@H](O)CO [2-DG, 2-deoxyglucose]",34 % of control
2,"OC[C@H]1O[C@H](CO)[C@@H](O)[C@@H]1O [2,5-AM]",78 % of control
3,"OC[C@H]1O[C@@](CO)(O[C@H]2O[C@H](CO)[C@@H](O)[C@H](O)[C@H]2O)[C@@H](O)[C@@H]1O [Sucrose, sucrose]",96 % of control
4,"O=C(CO)[C@@H](O)[C@H](O)[C@H](O)CO [Fructose, fructose]",11 % of control
5,"CO[C@H]1O[C@H](CO)[C@@H](O)[C@H](O)[C@H]1O [αMeGlc, α-methyl-D-glucopyranoside]",48 % of control
6,"CO[C@@H]([C@H](O)[C@H](O)CO)[C@@H](O)C=O [3-OMG, 3-O-methylglucose]",95 % of control
7,"O=C[C@H](O)[C@@H](O)[C@@H](O)[C@H](O)CO [Galactose, galactose]",71 % of control
8,"O=C(CCc1ccc(O)cc1)c1c(O)cc(O)cc1O [Phloretin, phloretin]",72 % of control

# Same assay, conditions: [14C] fructose 2 mM, 15 seconds at 25° C.; glucose analog 30 mM, phloridzin or phloretin 50 μM; KCl uptake deducted
row,Structure (SMILES),Na+-dependent uptake of [14C] fructose by renal brush border membrane vesicles
1,"O=CC[C@@H](O)[C@H](O)[C@H](O)CO [2-DG, 2-deoxyglucose]",16.8 ± 3.7 Pmol/mg protein/sec
2,"OC[C@H]1O[C@H](CO)[C@@H](O)[C@@H]1O [2,5-AM]",38.6 ± 2.6 Pmol/mg protein/sec
3,"OC[C@H]1O[C@@](CO)(O[C@H]2O[C@H](CO)[C@@H](O)[C@H](O)[C@H]2O)[C@@H](O)[C@@H]1O [Sucrose, sucrose]",47.3 ± 6.0 Pmol/mg protein/sec
4,"O=C(CO)[C@@H](O)[C@H](O)[C@H](O)CO [Fructose, fructose]",5.4 ± 2.1 Pmol/mg protein/sec
5,"CO[C@H]1O[C@H](CO)[C@@H](O)[C@H](O)[C@H]1O [αMeGlc, α-methyl-D-glucopyranoside]",23.8 ± 2.1 Pmol/mg protein/sec
6,"CO[C@@H]([C@H](O)[C@H](O)CO)[C@@H](O)C=O [3-OMG, 3-O-methylglucose]",47.1 ± 4.5 Pmol/mg protein/sec
7,"O=C[C@H](O)[C@@H](O)[C@@H](O)[C@H](O)CO [Galactose, galactose]",35.2 ± 3.3 Pmol/mg protein/sec
8,"O=C(CCc1ccc(O)cc1)c1c(O)cc(O)cc1O [Phloretin, phloretin]",35.8 ± 3.5 Pmol/mg protein/sec

# Biological target: T1, NaGLT1
# Test: Effect of inhibitors on uptake of [14C]-labeled αMeGlc by NaGLT1-expressing oocytes
# Type: cell-based
# Details: not given
# Experimental: as §1
row,Structure (SMILES),effect on the uptake of [14C]-labeled αMeGlc
1,"O=CC[C@@H](O)[C@H](O)[C@H](O)CO [2-DG, 2-deoxyglucose]",extremely strong inhibitory effect
2,O=C[C@H](O)[C@@H](O)[C@H](O)[C@H](O)CO [D-glucose],extremely strong inhibitory effect
3,"O=C(CO)[C@@H](O)[C@H](O)[C@H](O)CO [Fructose, fructose]",weak inhibitory effect
4,"CO[C@H]1O[C@H](CO)[C@@H](O)[C@H](O)[C@H]1O [αMeGlc, α-methyl-D-glucopyranoside]",extremely strong inhibitory effect
5,"CO[C@@H]([C@H](O)[C@H](O)CO)[C@@H](O)C=O [3-OMG, 3-O-methylglucose]",no effect
6,"O=C[C@H](O)[C@@H](O)[C@@H](O)[C@H](O)CO [Galactose, galactose]",no effect
7,"O=C(CCc1ccc(O)cc1)c1c(O)cc(O)cc1O [Phloretin, phloretin]",weak inhibitory effect
8,O=C[C@@H](O)[C@H](O)[C@@H](O)[C@@H](O)CO [L-glucose],no effect

# Biological target: T2, rNaGLT1 (Rattus norvegicus, UniProt Q80T22, M166I/S3F)
# T2 construct: expressed in transfected cells; host or cells: HEK293 cells, transient transfection, assayed 2 days later
# T2 sequence (Q80T22 1-484 S3F/M166I): T1 sequence (Q80T22 1-484 S3F/M166I)
# Test: Uptake of [14C] fructose by HEK293 cells transfected with rNaGLT1
# Type: cell-based
# Details: [14C] fructose 0.1 mM, 15 minutes at 37° C.; glucose analog 30 mM, phloridzin or phloretin 50 μM
# Experimental: As to HEK293 cells incubated with buffer solution containing glucose analog (0.1 mM, 37 kBq/ml) for 15 minutes at 37° C., uptake analysis was conducted 2 days after the transfection of a vector (white column, 0.8 μg/well) or rNaGLT1 cDNA (black column, 0.8 μg/well). Each column indicates mean±S.E.M obtained from 3 single layers.
# In the presence and absence of phloridzin (50 μM) or phloretin (50 μM), a glucose analog (30 mM), the uptake of [^14C] fructose (0.1 mM, 37 kBq/ml) by HEK293 cells transfected with rNaGLT1 was measured for 15 minutes at 37° C., and the uptake measured in HEK293 cells transfected with a vector was deducted. […] The values indicate mean±S.E.M of 3 independent experiments, respectively.
row,Structure (SMILES),"Uptake of [14C] fructose by HEK293 cells expressing rNaGLT1, % of control"
1,"O=CC[C@@H](O)[C@H](O)[C@H](O)CO [2-DG, 2-deoxyglucose]",70 % of control
2,"OC[C@H]1O[C@H](CO)[C@@H](O)[C@@H]1O [2,5-AM]",40 % of control
3,"OC[C@H]1O[C@@](CO)(O[C@H]2O[C@H](CO)[C@@H](O)[C@H](O)[C@H]2O)[C@@H](O)[C@@H]1O [Sucrose, sucrose]",144 % of control
4,"O=C(CCc1ccc(O)cc1)c1c(O)cc(O)cc1O[C@@H]1O[C@H](CO)[C@@H](O)[C@H](O)[C@H]1O [Phloridzin, phloridzin]",12 % of control
5,"O=C(CO)[C@@H](O)[C@H](O)[C@H](O)CO [Fructose, fructose]",8 % of control
6,"CO[C@H]1O[C@H](CO)[C@@H](O)[C@H](O)[C@H]1O [αMeGlc, α-methyl-D-glucopyranoside]",42 % of control
7,"CO[C@@H]([C@H](O)[C@H](O)CO)[C@@H](O)C=O [3-OMG, 3-O-methylglucose]",89 % of control
8,"O=C[C@H](O)[C@@H](O)[C@@H](O)[C@H](O)CO [Galactose, galactose]",99 % of control
9,"O=C(CCc1ccc(O)cc1)c1c(O)cc(O)cc1O [Phloretin, phloretin]",33 % of control

# Same assay, conditions: [14C] fructose 0.1 mM, 15 minutes at 37° C.; glucose analog 30 mM, phloridzin or phloretin 50 μM; vector uptake deducted
row,Structure (SMILES),Uptake of [14C] fructose by HEK293 cells expressing rNaGLT1
1,"O=CC[C@@H](O)[C@H](O)[C@H](O)CO [2-DG, 2-deoxyglucose]",2.04 ± 0.19 Pmol/mg protein/min
2,"OC[C@H]1O[C@H](CO)[C@@H](O)[C@@H]1O [2,5-AM]",1.16 ± 0.16 Pmol/mg protein/min
3,"OC[C@H]1O[C@@](CO)(O[C@H]2O[C@H](CO)[C@@H](O)[C@H](O)[C@H]2O)[C@@H](O)[C@@H]1O [Sucrose, sucrose]",4.20 ± 0.17 Pmol/mg protein/min
4,"O=C(CO)[C@@H](O)[C@H](O)[C@H](O)CO [Fructose, fructose]",0.22 ± 0.06 Pmol/mg protein/min
5,"CO[C@H]1O[C@H](CO)[C@@H](O)[C@H](O)[C@H]1O [αMeGlc, α-methyl-D-glucopyranoside]",1.24 ± 0.13 Pmol/mg protein/min
6,"CO[C@@H]([C@H](O)[C@H](O)CO)[C@@H](O)C=O [3-OMG, 3-O-methylglucose]",2.60 ± 0.15 Pmol/mg protein/min
7,"O=C[C@H](O)[C@@H](O)[C@@H](O)[C@H](O)CO [Galactose, galactose]",2.88 ± 0.23 Pmol/mg protein/min
8,"O=C(CCc1ccc(O)cc1)c1c(O)cc(O)cc1O [Phloretin, phloretin]",0.97 ± 0.09 Pmol/mg protein/min
